Here are results for one compound from patent publication US20120004235A1, “METHODS TO TREAT CANCER” (Rutgers, The State University of New Jersey, priority 2009, published 2012).

Assay [1] concerns human HCT-116 colon ca, HT-29 colon ca and NCI-H460 NSCLC cells. Kind of assay: 72 hour exposure concentration response in tumor cells (Example 22). It is filed as cell-based. The conditions noted are these: range over HCT-116, HT-29 and NCI-H460 cells and the three compounds. Here is the method:
The in vitro and in vivo activity of compound 2 and two of its metabolites (compound 5 and compound 6) were explored and compared with the activity of camptothecin Top1 inhibitors. […] In human HCT-116 colon ca, HT-29 colon ca and NCI-H460 NSCLC cells the concentration response for compound 2, compound 5 and compound 6 were the same. […] Compound 2 was administered intravenously on a QODx3 schedule for 2 cycles.

Assay [2] relates to Human HCT-116 Colon Tumor Xenograft Model. Kind of assay: Test D xenograft, Compound 2 and metabolites. The conditions noted are these: qod × 3 for 2 cycles.

With `CNCCn1c(=O)c2cc(O)c(OC)cc2c2cnc3cc4c(cc3c21)OCO4` [Compound 5], the IC50 in assay [1] (read-out: IC50 concentrations) lay within 0.5 to 0.65 nM. In addition, the IC90 in assay [1] (read-out: IC90 concentrations) was in the range of 1.8 to 2 nM. Also, in assay [2] (4 mg/kg/day IV), the “Increase in Life Span (ILS)” value was 1.8x, the “Tumor Growth Delay T-C” value came to 25 days and the “Tumor Growth Inhibition T/C (tumor volume)” value (from here on “Tumor Growth Inhibition T/C”) is 27.3%. In assay [2] (6 mg/kg/day IV), the “Increase in Life Span (ILS)” value was 1.9x, the “Tumor Growth Delay T-C” value turned out to be 28 days and the “Tumor Growth Inhibition T/C” value was 23.4%. In assay [2] (8 mg/kg/day IV), the “Increase in Life Span (ILS)” value is reported as 2.0x, the “Tumor Growth Delay T-C” value came to 32 days and the “Tumor Growth Inhibition T/C” value came to 27.2%.
